Read-outs that look alike come from different tables or passages of the source.
Legend:
LF = LF (Bacillus anthracis, UniProt P15917); experiment: biochemical; parameters: species or system B. anthracis
HDAC = experiment: Inhibition of histone deacetylase (HDAC); assay type: biochemical; details: read-out: Average IC50 against HDAC
[1] = biological target: T1, human MMP-1 catalytic domain (Homo sapiens, UniProt P03956); experiment: MMP-1 fluorescent microplate assay (BIOMOL kit); assay type: biochemical; details: fluorescence-based assay, 1 h at 37° C. with inhibitor, pH 7.5; read-out: IC50 against MMP-1
T1 sequence (P03956 100-268): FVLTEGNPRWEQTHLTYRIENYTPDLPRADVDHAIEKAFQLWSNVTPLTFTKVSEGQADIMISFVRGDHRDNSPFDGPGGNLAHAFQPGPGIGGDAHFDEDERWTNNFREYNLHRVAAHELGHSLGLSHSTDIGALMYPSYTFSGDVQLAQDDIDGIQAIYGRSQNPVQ
Excerpt: (§1) Experiments were repeated at least three times.

[2] = biological target: human MMP-2 catalytic domain (Homo sapiens, UniProt P08253); experiment: MMP-2 fluorescent microplate assay (BIOMOL kit); assay type: biochemical; details: for IC50: fluorescence-based assay, 1 h at 37° C. with inhibitor, pH 7.5, read-out: IC50 against MMP-2
Excerpt: as §1

[3] = tested on: neonatal rat cardiac fibroblasts; experiment: Cell invasion assay (Chemicon ECM 555); assay type: cell-based; details: 250 nM, 20 h
Protocol: Cell Invasion Assay. A cell invasion assay kit was purchased from Chemicon International (Cat. No. ECM 555) and the assay was performed as per kit instructions with minor modifications. Rat cardiac fibroblasts (CF) were prepared as previously described (F. J. Villarreal, N. N. Kim, G. D. Ungab, M. P. Printz, W. H. Dillmann, Circulation 1993, 88, 2849). Briefly, CF were prepared from hearts of 1-2 day old Sprague Dawley rats. Following collagenase digestions (4×), non-myocyte cells (mostly fibroblasts) were isolated by Percoll density gradient. The cell suspension was plated onto uncoated tissue culture dishes for 30 min to allow preferential attachment of CF to the bottom of the dish. The non-adherent cells were removed and fresh media (Dulbecco's modified Eagle's media +10% fetal bovine serum) was added. CF were allowed to proliferate to confluence and then trypsinized and frozen at −70° C. Stocks were freshly plated for the experiment and used from second passage. When reaching 90% confluence, cells were serum deprived for 24 h and then treated according to the experimental design (vide infra).
The CF were trypsinized once more and suspended in fresh serum-free media. Inhibitors AM-5 and AM-6 were dissolved in DMSO and diluted 10-fold in serum free media. […] Increased fluorescence indicates the presence of invaded cells. […]

[4] = read-out: Average IC50 against LF

Sequence of LF (P15917 34-809 limits assumed): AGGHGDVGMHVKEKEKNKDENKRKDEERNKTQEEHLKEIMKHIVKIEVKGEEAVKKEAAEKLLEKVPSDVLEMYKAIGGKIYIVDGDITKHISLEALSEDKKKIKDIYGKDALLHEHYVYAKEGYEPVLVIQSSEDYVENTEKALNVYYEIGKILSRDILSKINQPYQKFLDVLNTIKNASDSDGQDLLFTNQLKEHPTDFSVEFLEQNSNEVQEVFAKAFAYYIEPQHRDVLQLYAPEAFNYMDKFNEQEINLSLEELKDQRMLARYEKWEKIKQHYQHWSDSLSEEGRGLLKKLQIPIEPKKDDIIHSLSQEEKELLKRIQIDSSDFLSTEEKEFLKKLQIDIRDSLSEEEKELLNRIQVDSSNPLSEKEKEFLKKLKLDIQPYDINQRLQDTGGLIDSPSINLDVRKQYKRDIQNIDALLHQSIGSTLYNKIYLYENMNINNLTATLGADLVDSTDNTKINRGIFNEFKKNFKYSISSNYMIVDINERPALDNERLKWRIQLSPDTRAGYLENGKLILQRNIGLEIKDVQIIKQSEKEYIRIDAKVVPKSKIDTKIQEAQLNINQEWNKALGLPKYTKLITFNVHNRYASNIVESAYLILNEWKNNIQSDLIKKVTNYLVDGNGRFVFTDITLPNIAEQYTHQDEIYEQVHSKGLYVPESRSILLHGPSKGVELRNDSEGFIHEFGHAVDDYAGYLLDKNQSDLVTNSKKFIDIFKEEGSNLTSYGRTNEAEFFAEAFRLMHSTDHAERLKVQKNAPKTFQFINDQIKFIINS
Sequence of human MMP-2 catalytic domain (P08253 110-452): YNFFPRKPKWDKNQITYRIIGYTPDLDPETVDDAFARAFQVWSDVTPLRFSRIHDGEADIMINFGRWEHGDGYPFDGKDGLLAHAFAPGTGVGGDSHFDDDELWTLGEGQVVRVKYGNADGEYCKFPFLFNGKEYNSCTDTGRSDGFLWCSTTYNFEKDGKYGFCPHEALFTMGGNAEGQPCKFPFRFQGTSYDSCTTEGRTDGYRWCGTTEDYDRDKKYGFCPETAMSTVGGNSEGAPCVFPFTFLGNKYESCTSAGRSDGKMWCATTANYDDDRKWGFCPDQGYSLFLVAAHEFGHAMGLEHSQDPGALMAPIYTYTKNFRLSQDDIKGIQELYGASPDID

## CC(=O)NO [AHA (N-hydroxyacetamide), N-hydroxyacetamide, reference compound]
LF; [4]
  IC50: 11400 µM
HDAC
  IC50: 3200 µM

## Cc1cc(=O)c(O)c(C(=O)NCc2ccc(-c3ccccc3)cc2)o1 [AM-2, 3-Hydroxy-6-methyl-pyran-4(1)-one-2-carboxy-N-(4-phenylbenzylamide)]
[1]
  IC50: > 50 µM
[2]
  potency against MMP-2 compared with MMP-3, in words: substantially less potent against MMP-2
  IC50: 9.3 µM

## On1ccccc1=S [1,2-HOPTO]
LF; [4]
  IC50: 3900 µM
HDAC
  IC50: 860 µM

## O=C(NCc1ccc(-c2ccccc2)cc1)c1cccc(=O)n1O [compound 20]
[1]
  IC50: > 12.5 µM
[2]
  IC50: 0.9 µM

## COc1ccc(CNC(=O)c2oc(C)cc(=O)c2O)cc1 [AM-4]
[1]
  IC50: > 50 µM
[2]
  potency against MMP-2 compared with MMP-3, in words: substantially less potent against MMP-2
  IC50: > 50 µM

## Cc1occc(=S)c1O [Thiomaltol, thiomaltol]
LF
  IC50: 260 µM
HDAC
  IC50: 247 µM

## O=C(NCCc1ccc(-c2ccccc2)cc1)c1occc(=S)c1O [PY-3S (30)]
LF
  IC50: 18.5 µM

## Cc1cc(=O)c(O)c(C(=O)NCCc2ccc(-c3ccccc3)cc2)o1 [AM-3]
[1]
  IC50: > 50 µM
[2]
  IC50: 27 µM

## Cc1cc(=O)c(O)c(C(=O)NCc2ccc(-c3ccc(-c4ccccc4)cc3)cc2)o1 [AM-6, 3-Hydroxy-6-methyl-pyran-4(1H)-one-2-carboxy-N-(4-biphenylbenzylamide)]
[3]
  reduction of invasion of neonatal rat cardiac fibroblasts through a collagen membrane: 55%
[1]
  IC50: > 50 µM
[2]
  potency against MMP-2 compared with MMP-3, in words: substantially less potent against MMP-2
  IC50: > 50 µM

## O=C(NCc1ccc(-c2ccccc2)cc1)c1occc(=S)c1O [PY-2S (27), 3-Hydroxy-4-thiopyrone-2-carboxy-N-(4-phenylbenzylamide)]
LF
  IC50: 38 µM

## Cc1cc(=O)c(O)c(C(=O)NCc2ccc(-c3ccc(C#N)cc3)cc2)o1 [AM-5, 3-Hydroxy-6-methyl-pyran-4(1H)-one-2-carboxy-N-(4-(4-cyanophenyl)benzylamide)]
[3]
  reduction of invasion of neonatal rat cardiac fibroblasts through a collagen membrane: 67%
[1]
  IC50: > 50 µM
[2]
  potency against MMP-2 compared with MMP-3, in words: substantially less potent against MMP-2
  IC50: 0.61 µM

## Cc1cc(=O)c(O)c(C(=O)Nc2ccc(-c3ccccc3)cc2)o1 [AM-1, 3-Hydroxy-6-methyl-pyran-4(1H)-one-2-carboxy-N-(4-biphenylamide)]
[1]
  IC50: > 50 µM
[2]
  IC50: 36 µM
